In patent US11993563B2, “Solid compositions of cocrystals of cannabinoids” (priority 2018, dated 2024):

Experiments:
[1] = open vial, accelerated stability conditions 40° C. and 75±5% relative humidity
Procedure: (§1) X-ray power Diffraction (XRPD) measurements were performed at ambient conditions on a PANalytical X'Pert PRO θ-θ diffractometer of 240 mm of radius in reflection geometry, equipped with Cu Kα radiation and a PIXcel detector, operated at 45 kV and 40 mA. Each sample was mounted on a zero-background silicon holder and allowed to spin at 0.25 rev/s during the data collection.
The aim of the study is to evaluate the stability of cocrystal Form I of the present invention.
Cocrystal Form I (55 mg) is stored in an open vial and exposed to accelerated stability conditions (40° C. and 75±5% relative humidity) according to ICH guidelines (Guidance for Industry Q1A(R2) Stability Testing of New Drug Substances and Products—available on the website http://www.ich.org/products/guidelines/quality/quality-single/article/stability-testing-of-new-drug-substances-and-products.html on Aug. 4, 2017).

[2] = in tablet
Procedure: as §1

[3] = Stability of the cocrystal on heating (DSC experiments); format: physicochemical
Procedure: The cocrystal Form VII of the present invention may also be further characterized by DSC (differential scanning calorimetry) analysis as shown in FIG. 15. […] The cocrystal Form VII of the present invention may also be further characterized by having a melting range of about 109-120° C.
The cocrystal Form XVIII of the present invention may also be further characterized by DSC (differential scanning calorimetry) analysis as shown in FIG. 35.
The cocrystal Form XIX of the present invention may also be further characterized by DSC (differential scanning calorimetry) analysis as shown in FIG. 37.
DSC analyses were recorded with a Mettler Toledo DSC2. For cocrystals Forms […], and XI-XIX, the sample was weighed into a 40 μL aluminium crucible with a pinhole lid and was heated from 25 to 300° C. at a rate of 10° C./min, under nitrogen (50 mL/min). For cocrystals Form VII and VIII, the sample was weighed into a 40 μL aluminium crucible with a pinhole lid and was heated from 25 to 150° C. at a rate of 10° C./min, under nitrogen (50 mL/min).

Row | SMILES | stability according to XRPD [1] | integrity of the cocrystal after its formulation (XRPD of the tablet) [2] | remained stable after heating up to [3]
1 | C=C(C)[C@@H]1CCC(C)=C[C@H]1c1c(O)cc(CCCCC)cc1O [Form I, cocrystal of CBD and L-proline] | remained stable for at least three weeks | maintained its integrity | –
2 | CCCCCc1cc(O)c2c(c1)OC(C)(C)[C@@H]1CCC(C)=C[C@@H]21 [Form VII, cocrystal of (−)-(6aR,10aR)-6,6,9-trimethyl-3-pentyl-6a,7,8,10a-tetrahydro-6H-benzo[c]chromen-I-ol and L-proline] | – | maintained its integrity | up to 75 °C
3 | C=C(C)[C@@H]1CCC(C)=C[C@H]1c1c(O)cc(CCC)cc1O [Form XIX, cocrystal wherein the cannabinoid is CBDV and L-carnitine] | – | – | up to 110 °C
4 | C=C(C)[C@@H]1CCC(C)=C[C@H]1c1c(O)cc(CCC)cc1O [Form XVIII, cocrystal wherein the cannabinoid is CBDV and L-proline] | – | – | up to 90 °C
